{"source": "patent EP0927179B1", "about": "“SUBSTITUTED BENZOCYCLOHEPTAPYRIDINE DERIVATIVES USEFUL FOR INHIBITION OF FARNESYL PROTEIN TRANSFERASE” (SCHERING CORPORATION, priority 1996, dated 1998)", "key": {"[1]": {"target": "T1, farnesyl protein transferase (Homo sapiens, UniProt P49354+P49356)", "T1 sequence (P49356 whole entry, one chain of several)": "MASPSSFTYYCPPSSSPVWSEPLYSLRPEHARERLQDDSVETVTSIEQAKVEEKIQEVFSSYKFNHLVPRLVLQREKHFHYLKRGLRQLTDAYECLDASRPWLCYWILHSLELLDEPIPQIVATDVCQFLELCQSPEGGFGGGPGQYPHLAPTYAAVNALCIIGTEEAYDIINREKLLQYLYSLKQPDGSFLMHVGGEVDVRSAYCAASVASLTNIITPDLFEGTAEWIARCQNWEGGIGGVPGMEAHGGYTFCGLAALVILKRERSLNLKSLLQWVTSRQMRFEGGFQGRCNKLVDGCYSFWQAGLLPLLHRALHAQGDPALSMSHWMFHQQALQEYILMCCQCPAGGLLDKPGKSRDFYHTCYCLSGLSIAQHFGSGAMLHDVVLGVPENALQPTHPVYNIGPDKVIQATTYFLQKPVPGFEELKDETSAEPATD", "test": "FPT IC50 (H-ras), inhibition of farnesyl protein transferase, in vitro enzyme assay", "format": "biochemical", "procedure": "(§1) FPT IC50 (inhibition of farnesyl protein transferase, in vitro enzyme assay) and COS Cell IC50 (Cell-Based Assay) were determined following the assay procedures described in WO 95/10516, published April 20, 1995. GGPT IC50 (inhibition of geranylgeranyl protein transferase, in vitro enzyme assay), Cell Mat Assay, and anti-tumor activity (in vivo anti-tumor studies) could be determined by the assay procedures described in WO 95/10516. The disclosure of WO 95/10516 is incorporated herein by reference thereto."}, "Human tumor cells": {"system": "Human tumor cells", "test": "Soft Agar Assay (anchorage-independent growth)", "format": "cell-based", "procedure": "Anchorage-independent growth is a characteristic of tumorigenic cell lines. Human tumor cells are suspended in growth medium containing 0.3% agarose and an indicated concentration of a farnesyl transferase inhibitor. The solution is overlayed onto growth medium solidified with 0.6% agarose containing the same concentration of farnesyl transferase inhibitor as the top layer. After the top layer is solidified, plates are incubated for 10-16 days at 37°C under 5% CO2 to allow colony outgrowth. After incubation, the colonies are stained by overlaying the agar with a solution of MTT (3-[4,5-dimethyl-thiazol-2-yl]-2,5-diphenyltetrazolium bromide, Thiazolyl blue) (1 mg/mL in PBS). Colonies can be counted and the IC50's can be determined."}, "[2]": {"target": "T1, farnesyl protein transferase", "test": "FPT IC50 (K-ras), inhibition of farnesyl protein transferase, in vitro enzyme assay", "format": "biochemical", "procedure": "as §1"}, "COS Cell": {"system": "COS Cell", "test": "COS Cell IC50 (Cell-Based Assay)", "procedure": "as §1"}}, "note": "pIC50: −log10 of the molar value.", "data": [{"compound": "O=C(CC1CCN(S(=O)(=O)c2ccccc2)CC1)N1CCC([C@H]2c3ncc(Br)cc3CCc3cc(Cl)cc(Br)c32)CC1", "note": "[Example 1]", "values": [{"measurement": "IC50", "setting": "[1]", "value": 72, "unit": "nM"}]}, {"compound": "CS(=O)(=O)N1CCC(CC(=O)N2CCC([C@H]3c4ncc(Br)cc4CCc4cc(Cl)cc(Br)c43)CC2)CC1", "note": "[Example 2]", "values": [{"measurement": "pIC50", "setting": "Human tumor cells", "value": 7.30}]}, {"compound": "CN(C)S(=O)(=O)N1CCC(CC(=O)N2CCC([C@H]3c4ncc(Br)cc4CCc4cc(Cl)cc(Br)c43)CC2)CC1", "note": "[Example 3]", "values": [{"measurement": "pIC50", "setting": "[2]", "value": 8.00}, {"measurement": "IC50", "setting": "[1]", "value": 7.3, "unit": "nM"}, {"measurement": "pIC50", "setting": "Human tumor cells", "value": 7.00}, {"measurement": "pIC50", "setting": "COS Cell", "value": 8.05}]}, {"compound": "CCCS(=O)(=O)N1CCC(CC(=O)N2CCC([C@H]3c4ncc(Br)cc4CCc4cc(Cl)cc(Br)c43)CC2)CC1", "note": "[Example 7]", "values": [{"measurement": "pIC50", "setting": "Human tumor cells", "value": 6.60}, {"measurement": "pIC50", "setting": "COS Cell", "value": 7.52}]}, {"compound": "O=C(CC1CCN(S(=O)(=O)Cc2ccccc2)CC1)N1CCC([C@H]2c3ncc(Br)cc3CCc3cc(Cl)cc(Br)c32)CC1", "note": "[Example 9]", "values": [{"measurement": "pIC50", "setting": "COS Cell", "value": 6.46}]}, {"compound": "CC1(C)C2CCC1(CS(=O)(=O)N1CCC(CC(=O)N3CCC([C@H]4c5ncc(Br)cc5CCc5cc(Cl)cc(Br)c54)CC3)CC1)C(=O)C2", "note": "(stereo partly shown) [Example 11]", "values": [{"measurement": "IC50", "setting": "[1]", "value": 34.8, "unit": "nM"}]}, {"compound": "O=C(CC1CCN(S(=O)(=O)c2ccc(-c3ccccn3)s2)CC1)N1CCC([C@H]2c3ncc(Br)cc3CCc3cc(Cl)cc(Br)c32)CC1", "note": "[Example 12]", "values": [{"measurement": "inhibition at […]", "setting": "[1]; @73 nM, read-out: FPT inhibition (H-ras) at a single concentration", "value": 34, "unit": "%"}]}, {"compound": "O=C(CC1CCN(S(=O)(=O)c2cccs2)CC1)N1CCC([C@H]2c3ncc(Br)cc3CCc3cc(Cl)cc(Br)c32)CC1", "note": "[Example 13]", "values": [{"measurement": "IC50", "setting": "[1]", "value": 20, "unit": "nM"}]}, {"compound": "Cn1cnc(S(=O)(=O)N2CCC(CC(=O)N3CCC([C@H]4c5ncc(Br)cc5CCc5cc(Cl)cc(Br)c54)CC3)CC2)c1", "note": "[Example 14]", "values": [{"measurement": "pIC50", "setting": "[2]", "value": 7.64}, {"measurement": "IC50", "setting": "[1]", "value": 5.7, "unit": "nM"}]}, {"compound": "CS(=O)(=O)N1CCC(CC(=O)N2CCN(C3c4ccc(Cl)cc4CCc4cc(Br)cnc43)CC2)CC1", "note": "(stereo not shown) [Example 15]", "values": [{"measurement": "IC50", "setting": "[1]", "value": 54, "unit": "nM"}]}, {"compound": "NS(=O)(=O)N1CCC(CC(=O)N2CCN(C3c4ccc(Cl)cc4CCc4cc(Br)cnc43)CC2)CC1", "note": "(stereo not shown) [Example 16]", "values": [{"measurement": "IC50", "setting": "[1]", "value": 80, "unit": "nM"}]}]}
